“And” between values parts separate entries of the source, which are not always exact repeats. Equal values may be shown once. Results filed as inconclusive are left out.
System: CD8F1 mice, subcutaneous mammary adenocarcinoma, T/C%
Test: NCI In Vivo Anticancer Drug Screen. Data for tumor model Mammary Adenocarcinoma CD8F1 (subcutaneous) in CD8F1
Settings: higher = larger tumour
Procedure: The antitumor activity of compounds was measured in mice bearing transplantable tumors. Survival or tumor size were measured and the results are expressed as the measurement made in the treated group (T) divided by the measurement made in the vehicle treated control group (C). The tumor model used in this assay is Mammary Adenocarcinoma CD8F1 (subcutaneous) in CD8F1

[1] = endpoint: median tumor weight (est.), dose: 25.0 mg/kg/injection, schedule: Q07DX005 (ip), vehicle: saline
[2] = endpoint: median tumor weight (est.), dose: 50.0 mg/kg/injection, schedule: Q07DX005 (ip), vehicle: saline
[3] = endpoint: median tumor weight (est.), dose: 100.0 mg/kg/injection, schedule: Q07DX005 (ip), vehicle: saline
[4] = endpoint: median tumor weight (est.), dose: 200.0 mg/kg/injection, schedule: Q07DX005 (ip), vehicle: saline

C=CCc1cn(C2CC(O)C(CO)O2)c(=O)[nH]c1=O (configuration not stated)
T/C [1]: 58 % of control | T/C [2]: 79 % of control | T/C [3]: 86 % of control | T/C [4]: 248 % of control | T/C (endpoint: median tumor weight (est.), dose: 400.0 mg/kg/injection, schedule: Q07DX005 (ip), vehicle: saline): 75 % of control | T/C (endpoint: median tumor weight (est.), dose: 800.0 mg/kg/injection, schedule: Q07DX005 (ip), vehicle: saline): 79 % of control

ClC(Cl)(Cl)C1=NCc2nnn(Cc3ccccc3)c2N1
T/C (endpoint: median tumor weight (est.), dose: 12.5 mg/kg/injection, schedule: Q07DX005 (ip), vehicle: saline with Tween-80): 102 % of control | T/C (endpoint: median tumor weight (est.), dose: 25.0 mg/kg/injection, schedule: Q07DX005 (ip), vehicle: saline with Tween-80): 66 % of control | T/C (endpoint: median tumor weight (est.), dose: 100.0 mg/kg/injection, schedule: Q07DX005 (ip), vehicle: saline with Tween-80): 191 % of control | T/C (endpoint: median tumor weight (est.), dose: 200.0 mg/kg/injection, schedule: Q07DX005 (ip), vehicle: saline with Tween-80): 107 % of control | T/C (endpoint: median tumor weight (est.), dose: 400.0 mg/kg/injection, schedule: Q07DX005 (ip), vehicle: saline with Tween-80): 96 % of control

CC1(C)OC(=O)N(CO)C1=O
T/C (endpoint: median tumor weight (est.), dose: 12.5 mg/kg/injection, schedule: Q07DX005 (ip), vehicle: saline): 52 % of control | T/C [1]: 73 % of control | T/C [2]: 9 % of control | T/C [3]: 110 % of control | T/C [4]: 104 % of control

O=C(O)C1CSCN1 (configuration not stated)
T/C (endpoint: median tumor weight change, dose: 12.5 mg/kg/injection, schedule: Q01DX001 (ip), vehicle: water): 79 % of control | T/C (endpoint: median tumor weight change, dose: 25.0 mg/kg/injection, schedule: Q01DX001 (ip), vehicle: water): 111 % of control | T/C (endpoint: median tumor weight change, dose: 50.0 mg/kg/injection, schedule: Q01DX001 (ip), vehicle: water): 173 % of control | T/C (endpoint: median tumor weight change, dose: 100.0 mg/kg/injection, schedule: Q01DX001 (ip), vehicle: water): 90 % of control | T/C (endpoint: median tumor weight change, dose: 200.0 mg/kg/injection, schedule: Q01DX001 (ip), vehicle: water): 59 % of control

CN(C)N=Nc1cn[nH]c1C(N)=O
T/C (endpoint: median tumor weight (est.), dose: 25.0 mg/kg/injection, schedule: Q07DX005 (ip), vehicle: Klucel (hydroxypropylcellulose) (HPC)): 97 % of control | T/C (endpoint: median tumor weight (est.), dose: 50.0 mg/kg/injection, schedule: Q07DX005 (ip), vehicle: Klucel (hydroxypropylcellulose) (HPC)): 56 % of control | T/C (endpoint: median tumor weight (est.), dose: 100.0 mg/kg/injection, schedule: Q07DX005 (ip), vehicle: Klucel (hydroxypropylcellulose) (HPC)): 73 % of control | T/C (endpoint: median tumor weight (est.), dose: 200.0 mg/kg/injection, schedule: Q07DX005 (ip), vehicle: Klucel (hydroxypropylcellulose) (HPC)): 57 % of control

COC1CC(CC2CCC(C)C(C(C)C(=O)O)O2)OC2(OC(C)(C3CCC(C)(C4OC(C5OC(O)(CO)C(C)CC5C)CC4C)O3)CC2C)C1C (configuration not stated)
T/C (endpoint: median tumor weight (est.), dose: 0.31 mg/kg/injection, schedule: Q07DX005 (ip), vehicle: Klucel (hydroxypropylcellulose) (HPC)): 112 % of control | T/C (endpoint: median tumor weight (est.), dose: 0.63 mg/kg/injection, schedule: Q07DX005 (ip), vehicle: Klucel (hydroxypropylcellulose) (HPC)): 398 % of control | T/C (endpoint: median tumor weight (est.), dose: 1.25 mg/kg/injection, schedule: Q07DX005 (ip), vehicle: Klucel (hydroxypropylcellulose) (HPC)): 390 % of control | T/C (endpoint: median tumor weight (est.), dose: 2.5 mg/kg/injection, schedule: Q07DX005 (ip), vehicle: Klucel (hydroxypropylcellulose) (HPC)): 47 % of control | T/C (endpoint: median tumor weight (est.), dose: 5.0 mg/kg/injection, schedule: Q07DX005 (ip), vehicle: Klucel (hydroxypropylcellulose) (HPC)): 380 % of control | T/C (endpoint: median tumor weight (est.), dose: 10.0 mg/kg/injection, schedule: Q07DX005 (ip), vehicle: Klucel (hydroxypropylcellulose) (HPC)): 323 % of control

N=[N+]=CC(=O)OCC(N)C(=O)O (configuration not stated)
T/C (endpoint: median tumor weight (est.), dose: 6.25 mg/kg/injection, schedule: Q07DX005 (ip), vehicle: clinical formulation): 76 % of control | T/C (endpoint: median tumor weight (est.), dose: 6.25 mg/kg/injection, schedule: Q07DX005 (ip), vehicle: water): 58 % of control and 79 % of control | T/C (endpoint: median tumor weight (est.), dose: 12.5 mg/kg/injection, schedule: Q07DX005 (ip), vehicle: clinical formulation): 71 % of control | T/C (endpoint: median tumor weight (est.), dose: 25.0 mg/kg/injection, schedule: Q07DX005 (ip), vehicle: clinical formulation): 32 % of control | T/C (endpoint: median tumor weight (est.), dose: 50.0 mg/kg/injection, schedule: Q07DX005 (ip), vehicle: clinical formulation): 29 % of control | T/C (endpoint: median tumor weight (est.), dose: 50.0 mg/kg/injection, schedule: Q07DX005 (ip), vehicle: water): 65 % of control
